By EC50 is commonly meant the concentration giving half of the maximal effect.

The test system of this experiment is HBsAg in HepG2.2.15 cells. Briefly: HBsAg Assay: inhibition of HBsAg in HepG2.2.15 cells (CLIA immunoassay of supernatant). The experiment is classed as cell-based, hepatitis B virus. The conditions noted are these: supernatant collected at day 6 after exposure of compounds, final DMSO 0.5%. How it is done: Inhibition of HBsAg was determined in HepG2.2.15 cells. Cells were maintained in culture medium containing 10% fetal calf serum, […], Glutamine, penicillin/streptomycin. Cells were seeded in 96-well collagen-coated plate at a density of 30,000 cells/well. Serially diluted compounds were added to cells next day at the final DMSO concentration of 0.5%. Cells were incubated with compounds for 2-3 days, after which medium was removed. Fresh medium containing compounds was added to cells for additional 3-4 days. At day 6 after exposure of compounds, supernatant was collected, the HBsAg immunoassay (microplate-based chemiluminescence immunoassay kits, CLIA, Autobio Diagnosics Co., Zhengzhou, China, Catalog #CL0310-2) was used to determine the level of HBsAg according to manufactory instruction. Dose-response curves were generated and the EC50 value (effective concentrations that achieved 50% inhibitory effect) were determined using XLfit software. In addition, cells were seeded at a density of 5,000 cells/well for determination of cell viability in the presence and absence of compounds by using CellTiter-Glo reagent (Promega). Tables 1-3 show EC50 values obtained by the HBsAg assay for selected compounds.

Setting [1] is: Hepatitis B virus, HepG2.2.15, 144 h, read-out: sAg EC50, μM, HepG2.2.15 cells.
Where [2] appears, read: read-out: sAg EC50, HepG2.2.15 cells.

The structures appear in SMILES notation. Where two headings read alike, the source gives them in different places.

As to `CCN1CCCc2c3c(cc(OC(F)F)c21)-c1[nH]c(=O)c(C(=O)O)cc1C(C(C)(C)C)C3` (centres unmarked) [Example 34, 6-(tert-Butyl)-12-(difluoromethoxy)-1-ethyl-9-oxo-1,2,3,4,5,6,9,10-octahydroquinolino[7,8-f]quinoline-8-carboxylic Acid], the EC50 under setting [1] was 0.012 µM.

For the compound `CC(C)(C)C1Cc2c(cc(OC(F)F)c3ncccc23)-c2[nH]c(=O)c(C(=O)O)c(O)c21` (centres unmarked) [Example 29, 6-(tert-Butyl)-12-(difluoromethoxy)-7-hydroxy-9-oxo-5,6,9,10-tetrahydroquinolino[7,8-f]quinoline-8-carboxylic Acid], under setting [1], the EC50 is 0.001 µM.

For the compound `CC(C)(C)C1Cc2c(nc3c(OC(F)F)cccn23)-c2[nH]c(=O)c(C(=O)O)cc21` (single isomer, unassigned) [Example 10, 5-(tert-Butyl)-11-(difluoromethoxy)-2-oxo-1,2,5,6-tetrahydropyrido[2′,1′:2,3]imidazo[4,5-h]quinoline-3-carboxylic Acid], under setting [2], the half-maximal effective concentration (EC50) is 0.003 µM.

As for `COCCOc1cccc2c1cc1n2CC(C(C)(C)C)c2c-1[nH]c(=O)c(C(=O)O)c2O` (centres unmarked) [Example 6, 5-(tert-Butyl)-4-hydroxy-11-(2-methoxyethoxy)-2-oxo-1,2,5,6-tetrahydroindolo[1,2-h][1,7] naphthyridine-3-carboxylic Acid], under setting [1], the EC50 turned out to be 0.76 µM.

`CC(C)(C)C1Cn2c(cc3c(OC(F)F)cccc32)-c2[nH]c(=O)c(C(=O)O)c(O)c21` (single isomer, unassigned) [Example 2, 5-(tert-Butyl)-11-(difluoromethoxy)-4-hydroxy-2-oxo-1,2,5,6-tetrahydroindolo[1,2-h][1,7]naphthyridine-3-carboxylic Acid]: the EC50 under setting [2] was found to be 1 µM.

As to `CC(C)(C)C1Cc2c(cc(OC(F)F)c3ncccc23)-c2[nH]c(=O)c(C(=O)O)cc21` (single isomer, unassigned) [Example 37, 6-(tert-Butyl)-12-(difluoromethoxy)-9-oxo-5,6,9,10-tetrahydroquinolino[7,8-f]quinoline-8-carboxylic Acid], the EC50 under setting [2] turned out to be 0.003 µM.

In the case of `Cn1c2c(cc(C(=O)O)c1=O)C(C(C)(C)C)Cc1c-2nc(Cl)c2ccccc12` (single isomer, unassigned) [Example 44, 12-(tert-Butyl)-6-chloro-4-methyl-3-oxo-3,4,11,12-tetrahydrobenzo[c][1,10]phenanthroline-2-carboxylic Acid], under setting [2], the EC50 was 0.009 µM.

Take `CC(C)(C)C1Cn2c(nc3c(OC(F)F)cccc32)-c2[nH]c(=O)c(C(=O)O)c(O)c21` (centres unmarked) [Example 25, 5-(tert-Butyl)-11-(difluoromethoxy)-4-hydroxy-2-oxo-1,2,5,6-tetrahydrobenzo[4,5]imidazo[1,2-h][1,7]naphthyridine-3-carboxylic Acid]: the EC50 under setting [1] amounted to 0.004 µM.

For `COc1cccn2c3c(nc12)-c1[nH]c(=O)c(C(=O)O)cc1C(C(C)(C)C)C3` (single isomer, unassigned) [Example 14, 5-(tert-Butyl)-11-methoxy-2-oxo-1,2,5,6-tetrahydropyrido[2′,1′:2,3]imidazo[4,5-h]quinoline-3-carboxylic Acid], the EC50 under setting [2] worked out at 0.012 µM.

Take `CC(C)(C)C1Cc2c(nc3c(OC(F)F)cccn23)-c2[nH]c(=O)c(C(=O)O)c(O)c21` (single isomer, unassigned) [Example 7, 5-(tert-Butyl)-11-(difluoromethoxy)-4-hydroxy-2-oxo-1,2,5,6-tetrahydropyrido[2′,1′:2,3]imidazo[4,5-h]quinoline-3-carboxylic Acid]: under setting [2], the EC50 came to 0.002 µM.

For `Cn1c2c(cc(C(=O)O)c1=O)C(C(C)(C)C)Cc1c-2nc(Cl)c2ccccc12` (single isomer, unassigned) [Example 45, 12-(tert-Butyl)-6-chloro-4-methyl-3-oxo-3,4,11,12-tetrahydrobenzo[c][1,10]phenanthroline-2-carboxylic Acid], the EC50 under setting [2] amounted to 1 µM.

`COc1nc2c(c3ccccc13)CC(C(C)(C)C)c1cc(C(=O)O)c(=O)[nH]c1-2` (single isomer, unassigned) [Example 41, 12-(tert-Butyl)-6-methoxy-3-oxo-3,4,11,12-tetrahydrobenzo[c][1,10]phenanthroline-2-carboxylic Acid]: the EC50 under setting [2] came out at 0.001 µM.

As to `CC(C)(C)C1Cc2c(nc3c(OC(F)F)cccn23)-c2[nH]c(=O)c(C(=O)O)cc21` (single isomer, unassigned) [Example 11, 5-(tert-Butyl)-11-(difluoromethoxy)-2-oxo-1,2,5,6-tetrahydropyrido[2′,1′:2,3]imidazo[4,5-h]quinoline-3-carboxylic Acid], the EC50 under setting [2] stood at 27 µM.

In the case of `CC(C)(C)C1Cn2c(nc3c(OC(F)F)cccc32)-c2[nH]c(=O)c(C(=O)O)cc21` (centres unmarked) [Example 26, 5-(tert-Butyl)-11-(difluoromethoxy)-2-oxo-1,2,5,6-tetrahydrobenzo[4,5]imidazo[1,2-h][1,7]naphthyridine-3-carboxylic Acid], the EC50 under setting [1] came out at 0.057 µM.

With `CC(C)C1Cc2c(nc3c(OC(F)F)cccn23)-c2[nH]c(=O)c(C(=O)O)cc21` (single isomer, unassigned) [Example 12, 11-(Difluoromethoxy)-5-isopropyl-2-oxo-1,2,5,6-tetrahydropyrido[2′,1′:2,3]imidazo[4,5-h]quinoline-3-carboxylic Acid], the EC50 under setting [2] stood at 0.018 µM.

As to `COc1cccn2c3c(nc12)-c1[nH]c(=O)c(C(=O)O)cc1C(C(C)(C)C)C3` (single isomer, unassigned) [Example 15, 5-(tert-Butyl)-11-methoxy-2-oxo-1,2,5,6-tetrahydropyrido[2′,1′:2,3]imidazo[4,5-h]quinoline-3-carboxylic Acid], the EC50 under setting [2] is 1 µM.

Turning to `COc1nc2c(c3ccccc13)CC(C(C)(C)C)c1cc(C(=O)O)c(=O)[nH]c1-2` (single isomer, unassigned) [Example 42, 12-(tert-Butyl)-6-methoxy-3-oxo-3,4,11,12-tetrahydrobenzo[c][1,10]phenanthroline-2-carboxylic Acid], the EC50 under setting [2] was 0.075 µM.

Turning to `COc1ccn2c3c(nc2c1OC)-c1c(cc(C(=O)O)c(=O)n1C)C(C(C)(C)C)C3` (single isomer, unassigned) [Example 23, 5-(tert-butyl)-10,11-dimethoxy-1-methyl-2-oxo-1,2,5,6-tetrahydropyrido[2′,1′:2,3]imidazo[4,5-h]quinoline-3-carboxylic Acid], the EC50 under setting [2] was 0.011 µM.

For the compound `CC(C)(C)C1Cc2c(cc(OC(F)F)c3ncccc23)-c2[nH]c(=O)c(C(=O)O)cc21` (single isomer, unassigned) [Example 38, 6-(tert-butyl)-12-(difluoromethoxy)-9-oxo-5,6,9,10-tetrahydroquinolino[7,8-f]quinoline-8-carboxylic Acid], the EC50 under setting [2] is 3 µM.

Consider `Cn1c2c(cc(C(=O)O)c1=O)C(C(C)(C)C)Cc1c-2cc(OC(F)F)c2ncccc12` (single isomer, unassigned) [Example 39, 6-(tert-Butyl)-12-(difluoromethoxy)-10-methyl-9-oxo-5,6,9,10-tetrahydroquinolino[7,8-f]quinoline-8-carboxylic Acid], for which the EC50 under setting [2] is 10 µM.

For the origin of these results see US20220125771A1, “S[…], ANALOGUES THEREOF, AND METHODS USING SAME” (priority 2019, published 2022).
